Source: US20090281054A1, “COMPOSITIONS AND METHODS COMPRISING CAPURAMYCIN ANALOGUES” (priority 2008, published 2009)
Values after ≈ are worked out from the molar mass of the structure shown. Where two headings read alike, the source gives them in different places.

How the values were obtained:
[1] = test system: M. kansaii (MKN; ATCC12478 & 35775); assay: MIC by microdilution method in 7H9 broth; type: cell-based, M. kansasii; details: Mycobacterium kansasii, read-out: MIC
MTB cultures = assay: Induction of morphological changes and bacterial disintegration; type: cell-based, Mycobacterium tuberculosis; details: for Turbidity of MTB cultures: within 2 days of exposure
Excerpt: Induction of morphological changes and bacterial disintegration. […] Tubercle bacilli exposed to CM analogues were typically club-shaped, with deeply stained swollen ends (see Reddy et al. Antimicrob. Agents Chemother., 2008, 52(2), 719-721).

MTB = assay: In vivo efficacy in mouse model of chronic TB disease (lung CFU); details: mice treated for 3 wk, starting 3 wk after infection, gav, ip, iv
Procedure: In vivo activity against MTB. In vivo efficacy of CM analogues was investigated in a mouse model of chronic TB disease (FIG. 2). Three wk after infection, mice were treated for 3 wk with the drugs by gavage (gav), intraperitoneal injection (ip), intravenous injection (iv), or intranasal (in) routes. Efficacy was analyzed by determining Colony-Forming Units (CFU) in lungs. […] Each achieved a decrease of 1-log10 lung CFU compared to the late control [LC] CFU by at least one route, which varied for each drug.

MSMG and MTB (H37Rv) = assay: Minimum bactericidal concentration (MBC), MBC/MIC ratio; type: cell-based, Mycobacterium tuberculosis; M. smegmatis
[2] = test system: Mycobacterium tuberculosis (MTB); assay: MIC by BACTEC radiometric method; type: cell-based; details: for MIC90: MTB
Procedure: Determination of MIC. MIC of drugs for laboratory and clinical strains of Mycobacterium tuberculosis (MTB) was determined by BACTEC radiometric method as described by Heifets (1991), “Antituberculosis Drugs: Antimicrobial Activity in vitro, Drug Susceptibility in the Chemotherapy of Microbacterial Infections, Boca Raton, Fla., CRC Press and Luna-Herrera et al., Antimicrob. Agents and Chemother. 1995, 39(2), 440-444. […] The minimal inhibitory concentration (MIC) was defined as the lowest concentrations of drug that caused GI equal to or less than that of the 1/100 dilution growth control. Capuramycin analogues SQ641, SQ922 and SQ997 were tested at concentrations ranging from […].

[3] = test system: M. smegmatis (MSMG; MC2155); assay: MIC by microdilution method in 7H9 broth; type: cell-based; details: MSMG MC^2155, 72 hr
MTB inside macrophages = assay: Intracellular activity of DMSO-solubilized drug in MTB infected macrophages; type: cell-based, Mycobacterium tuberculosis; details: for Mean RLU at Day 7: Day 0 RLU 443, Control Day 7 4251
translocase I = translocase I (Escherichia coli, UniProt P0A6W3); assay: IC50 against translocase I; type: biochemical
M. avium complex (MAC) = assay: MIC by microdilution method in 7H9 broth; type: cell-based; details: Mycobacterium avium; for MIC90: value in square brackets, read-out: MIC90
[4] = test system: M. abscessus (MAB; ATCC 700869); assay: MIC by microdilution method in 7H9 broth; type: cell-based; details: Mycobacteroides abscessus, ATCC700869; MAB 700869; read-out: MIC
MTB H37Rv = assay: MIC by broth microdilution; type: cell-based; details: Mycobacterium tuberculosis
Procedure: (§1) The SQ997 amino acid derivatives shown in Table 2 were tested for in vitro activity against MTB, cytotoxicity for uninfected J774 cells to determine IC50, and for intracellular activity in the macrophage assay (Table 15). […] Cell viability remained similar to SQ997, or slightly better as cell morphologic changes were reduced.

in vitro = type: cell-based; details: mouse
Procedure: as §1

[5] = ATCC 12478 / ATCC 35775, MKN ATCC35775
[6] = Mycolicibacterium smegmatis, MC2155|MC^2155, read-out: MIC
[7] = MAC strain NIH C1-1, read-out: MIC
[8] = MAC strain NIH C1-2, read-out: MIC
[9] = MAC strain NIH C1-3, read-out: MIC
[10] = MAC strain NIH C1-4, read-out: MIC

translocase I, sequence (P0A6W3 whole entry): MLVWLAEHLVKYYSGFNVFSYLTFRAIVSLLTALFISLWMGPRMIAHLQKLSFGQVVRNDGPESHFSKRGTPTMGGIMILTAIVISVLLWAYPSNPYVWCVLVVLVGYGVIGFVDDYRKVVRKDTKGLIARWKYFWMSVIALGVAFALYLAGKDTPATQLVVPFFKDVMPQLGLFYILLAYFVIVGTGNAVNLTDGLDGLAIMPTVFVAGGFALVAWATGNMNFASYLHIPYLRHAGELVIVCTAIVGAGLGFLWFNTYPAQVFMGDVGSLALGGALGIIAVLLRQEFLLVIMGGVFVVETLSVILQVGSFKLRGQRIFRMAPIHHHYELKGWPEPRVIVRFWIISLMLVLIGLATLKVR

CO[C@H]1[C@@H](O)[C@H](n2ccc(=O)[nH]c2=O)O[C@@H]1[C@@H](O[C@H]1OC(C(=O)Nc2ccc(F)c(F)c2)=C[C@H](O)[C@@H]1O)C(N)=O [SQ922]
Toxicity (4-day IV injections at 500 mg/kg/day): No toxicity | MIC [1, 5]: 1 µg/mL (≈ 1.75 µM) | MIC ([1]; MKN ATCC12478): 16 µg/mL (≈ 28 µM) | Bacterial disintegration / clearance of MTB cultures (MTB cultures): rapid bacterial disintegration | Turbidity of MTB cultures (MTB cultures): marked fall in the turbidity | Routes by which replication of MTB in lungs was prevented (vs early control) (MTB): most routes | MBC/MIC ratio (MSMG and MTB (H37Rv)): 1 | MIC ([2]; H37RV, MTB strain H37Rv): 2 µg/mL (≈ 3.51 µM) | MIC90 [2]: 8 µg/mL (≈ 14 µM) | MIC ([2]; MTB strain 16): 8 µg/mL (≈ 14 µM) | MIC ([2]; MTB strain 113): 2 µg/mL (≈ 3.51 µM) | MIC ([2]; MTB strain 158): 2 µg/mL (≈ 3.51 µM) | MIC ([2]; MTB strain 606): 4 µg/mL (≈ 7.01 µM) | MIC ([2]; MTB strain 847): 4 µg/mL (≈ 7.01 µM) | MIC ([2]; MTB strain 1351): 2 µg/mL (≈ 3.51 µM) | MIC ([2]; MTB strain 1407): 2 µg/mL (≈ 3.51 µM) | MIC ([2]; MTB strain 1498): 4 µg/mL (≈ 7.01 µM) | MIC ([2]; MTB strain 1665): 4 µg/mL (≈ 7.01 µM) | MIC ([2]; MTB strain 1703): 8 µg/mL (≈ 14 µM) | MIC ([2]; MTB strain 1760): 8 µg/mL (≈ 14 µM) | MIC ([2]; MTB strain 1782): 8 µg/mL (≈ 14 µM) | MIC ([2]; MTB strain 1901): 4 µg/mL (≈ 7.01 µM) | MIC ([2]; MTB strain 1921): 4 µg/mL (≈ 7.01 µM) | MIC ([2]; MTB strain 2224): 4 µg/mL (≈ 7.01 µM) | MIC ([2]; MTB strain 2554): 4 µg/mL (≈ 7.01 µM) | MIC ([2]; MTB strain 2693): 4 µg/mL (≈ 7.01 µM) | MIC ([2]; MTB strain 8266): 2 µg/mL (≈ 3.51 µM) | MIC ([2]; MTB strain 8642): 2 µg/mL (≈ 3.51 µM) | MIC [3]: 2 µg/mL (≈ 3.51 µM) | MIC [3, 6]: 2 µg/mL (≈ 3.51 µM) | Mean RLU at Day 7 (MTB inside macrophages; 2 μg/ml): 1164 RLU | Mean RLU at Day 7 (MTB inside macrophages; 4 μg/ml): 1080 RLU | Mean RLU at Day 7 (MTB inside macrophages; 8 μg/ml): 1111 RLU | Mean RLU at Day 7 (MTB inside macrophages; 16 μg/ml): 496 RLU | Mean RLU at Day 7 (MTB inside macrophages; 32 μg/ml): 311 RLU | Mean RLU at Day 7 (MTB inside macrophages; 64 μg/ml): 134 RLU | Intracellular activity (FIG. 1) (MTB inside macrophages; 1× and 2× MIC): showed intracellular activities | IC50 against translocase I (translocase I): 0.009 µg/mL (≈ 0.0158 µM) | MIC (M. avium complex (MAC); MAC strain 100, read-out: MIC): 4 µg/mL (≈ 7.01 µM) | MIC (M. avium complex (MAC); MAC strain 101, read-out: MIC): 1 µg/mL (≈ 1.75 µM) | MIC (M. avium complex (MAC); MAC strain 104, read-out: MIC): 4 µg/mL (≈ 7.01 µM) | MIC (M. avium complex (MAC); MAC strain 109, read-out: MIC): 0.5 µg/mL (≈ 0.876 µM) | MIC (M. avium complex (MAC); MAC strain A5, read-out: MIC): 2 µg/mL (≈ 3.51 µM) | MIC (M. avium complex (MAC); MAC strain JSH1, read-out: MIC): 16 µg/mL (≈ 28 µM) | MIC (M. avium complex (MAC); [7]): > 32 µg/mL | MIC (M. avium complex (MAC); [8]): 1 µg/mL (≈ 1.75 µM) | MIC (M. avium complex (MAC); [9]): 8 µg/mL (≈ 14 µM) | MIC (M. avium complex (MAC); [10]): 2 µg/mL (≈ 3.51 µM) | MIC90 (M. avium complex (MAC); MAC isolates): 16 µg/mL (≈ 28 µM) | MIC [4]: 16 µg/mL (≈ 28 µM)

CO[C@H]1[C@@H](O)[C@H](n2ccc(=O)[nH]c2=O)O[C@@H]1[C@@H](O[C@H]1OC(C(=O)N[C@H]2CCC[C@@H](C)NC2=O)=C[C@H](O)[C@@H]1O)C(N)=O [SQ997]
Toxicity (4-day IV injections at 1000 mg/kg/day): No toxicity | MIC [1, 5]: 4 µg/mL (≈ 6.85 µM) | MIC ([1]; MKN ATCC12478): 16 µg/mL (≈ 27.4 µM) | MIC (MTB H37Rv): 8 µg/mL (≈ 13.7 µM) | Bacterial disintegration / clearance of MTB cultures (MTB cultures): rapid bacterial disintegration | Turbidity of MTB cultures (MTB cultures): marked fall in the turbidity | Routes by which replication of MTB in lungs was prevented (vs early control) (MTB): gav and iv | MBC/MIC ratio (MSMG and MTB (H37Rv)): 1 | MIC ([2]; H37RV, MTB strain H37Rv): 8 µg/mL (≈ 13.7 µM) | MIC90 [2]: 16 µg/mL (≈ 27.4 µM) | MIC ([2]; MTB strain 16): 16 µg/mL (≈ 27.4 µM) | MIC ([2]; MTB strain 113): 16 µg/mL (≈ 27.4 µM) | MIC ([2]; MTB strain 158): 8 µg/mL (≈ 13.7 µM) | MIC ([2]; MTB strain 606): 16 µg/mL (≈ 27.4 µM) | MIC ([2]; MTB strain 847): 16 µg/mL (≈ 27.4 µM) | MIC ([2]; MTB strain 1351): 16 µg/mL (≈ 27.4 µM) | MIC ([2]; MTB strain 1407): 16 µg/mL (≈ 27.4 µM) | MIC ([2]; MTB strain 1498): 16 µg/mL (≈ 27.4 µM) | MIC ([2]; MTB strain 1665): 16 µg/mL (≈ 27.4 µM) | MIC ([2]; MTB strain 1703): 16 µg/mL (≈ 27.4 µM) | MIC ([2]; MTB strain 1760): > 16 µg/mL | MIC ([2]; MTB strain 1782): > 16 µg/mL | MIC ([2]; MTB strain 1901): 16 µg/mL (≈ 27.4 µM) | MIC ([2]; MTB strain 1921): 16 µg/mL (≈ 27.4 µM) | MIC ([2]; MTB strain 2224): 16 µg/mL (≈ 27.4 µM) | MIC ([2]; MTB strain 2554): 16 µg/mL (≈ 27.4 µM) | MIC ([2]; MTB strain 2693): 16 µg/mL (≈ 27.4 µM) | MIC ([2]; MTB strain 8266): 8 µg/mL (≈ 13.7 µM) | MIC ([2]; MTB strain 8642): 16 µg/mL (≈ 27.4 µM) | MIC [3]: 8 µg/mL (≈ 13.7 µM) | MIC [3, 6]: 8 µg/mL (≈ 13.7 µM) | IC50 against translocase I (translocase I): 0.01 µg/mL (≈ 0.0171 µM) | MIC (M. avium complex (MAC); 336 h, MAC isolates, 2 wk, read-out: MIC (range)): 4 to 32 µg/mL (≈ 6.85 to 54.8 µM) | MIC (M. avium complex (MAC); MAC strain 100, read-out: MIC): 16 µg/mL (≈ 27.4 µM) | MIC (M. avium complex (MAC); MAC strain 101, read-out: MIC): 8 µg/mL (≈ 13.7 µM) | MIC (M. avium complex (MAC); MAC strain 104, read-out: MIC): 16 µg/mL (≈ 27.4 µM) | MIC (M. avium complex (MAC); MAC strain 109, read-out: MIC): 8 µg/mL (≈ 13.7 µM) | MIC (M. avium complex (MAC); MAC strain A5, read-out: MIC): 16 µg/mL (≈ 27.4 µM) | MIC (M. avium complex (MAC); MAC strain JSH1, read-out: MIC): 32 µg/mL (≈ 54.8 µM) | MIC (M. avium complex (MAC); [7]): 8 µg/mL (≈ 13.7 µM) | MIC (M. avium complex (MAC); [8]): 4 µg/mL (≈ 6.85 µM) | MIC (M. avium complex (MAC); [9]): 16 µg/mL (≈ 27.4 µM) | MIC (M. avium complex (MAC); [10]): 8 µg/mL (≈ 13.7 µM) | MIC90 (M. avium complex (MAC); MAC isolates): 16 µg/mL (≈ 27.4 µM) | IC50 (in vitro): > 32 µg/mL | MIC [4]: 16 µg/mL (≈ 27.4 µM)
